Data from patent publication US20210032291A1, “Compstatin Analogs With Improved Pharmacokinetic Properties” (The Trustees of the University of Pennsylvania, priority 2011, published 2021).
In brackets after ≈: the same amount, converted by molar mass. Where two headings read alike, the source gives them in different places. Bridge positions count the residues as written; N and C are the ends. Square brackets hold non-standard residues; d marks the D form. Peptide text beside a SMILES is read from it. Trp(1-Me) = Cn1cc(C[C@H](N)C(=O)O)c2ccccc21; NMeI = CC[C@H](C)[C@H](NC)C(=O)O; Sar = CNCC(=O)O

Legend:
C3b [1] = molecular target: T1, C3b (Homo sapiens, UniProt P01024); conditions: value from previous publication (WO2010/127336), cited from earlier work
T1 construct: Biotinylated C3b was captured site-specifically on a streptavidin chip

[2] = Solubility in WFI and DPBS; UPLC C18 retention time as hydrophobicity; conditions: for solubility at 5 min: pH 7.4; for Hydrophobicity Retention Time: UPLC analysis on a C18 column
Method: Approximately 5 mg of each peptide (acetate form) was weighed out into separate LoBind Eppendorf tubes and 50 μL water for injection (WFI) was added to each tube. Each sample was centrifuged at 13000 rpm for 2 min and diluted for measuring the optical density (OD) at 280 nm using a NanoDrop 2000 spectrophotometer (ThermoScientific, Wilmington, Del.). Each concentrated sample was diluted 1:20 into Dulbecco's phosphate buffered saline (DPBS, without potassium and calcium; Invitrogen, Carlsbad, Calif.). The samples were monitored for precipitation, and each sample was vortexed for 5 min and centrifuged at 13000 rpm for 2 min. The OD of each DPBS supernatant was measured to determine peptide concentration at saturation.
In addition, the ultra performance liquid chromatography (UPLC) retention time of these peptides on a C18 column was measured to reflect their apparent relative hydrophobicity (Table 3).

[3] = test system: classical pathway of complement; assay: ELISA inhibition of classical pathway complement activation; type: biochemical; conditions: read-out: IC50, peptide concentration to reach 50% inhibition of classical pathway complement activation; Table 1
Method: Inhibition of complement activation. The ability of the compstatin analogs to inhibit the activation of the classical pathway of complement was assessed by ELISA as described elsewhere (Katragadda et al., 2006, supra; Mallik et al., 2005, supra). The percent inhibition was plotted against the peptide concentration, and the resulting data set was fitted to the logistic dose-response function using Origin 8.0 software. IC50 values were obtained from the fitted parameters that produced the lowest χ2 value. Each analog was assayed at least three times.

C3b [4] = molecular target: T1, C3b; assay: SPR kinetic analysis of binding to immobilized C3b (Biacore, single cycle kinetics); conditions: for ka: association rate / Kd / koff: Table 1, N-terminal analogs; for Kd: read-out: KD: binding constant from SPR; for koff: read-out: kd: dissociation rate
Method: SPR analysis. The interaction of the compstatin analogs with C3b was characterized using a Biacore 3000 instrument (GE Healthcare, Corp., Piscataway, N.J.). The running buffer was PBS, pH 7.4 (10 mM sodium phosphate, 150 mM NaCl) with 0.005% Tween-20. Biotinylated C3b was captured site-specifically on a streptavidin chip at about 3000 and 5000 RU density; two untreated flow cells were used as reference surface. For kinetic analysis, sets of five increasing concentrations of a particular compound were injected over the chip surface one after the other in a single cycle. […] Processed biosensor data were globally fitted to a 1:1 Langmuir binding model (kindly provided by GE Helthcare), and the equilibrium dissociation constant (KD) was calculated from the equation KD=kd/ka. Each assay was performed at least twice.

[5] = Dulbecco's phosphate buffered saline

T1 sequence (P01024 23-667 limits assumed): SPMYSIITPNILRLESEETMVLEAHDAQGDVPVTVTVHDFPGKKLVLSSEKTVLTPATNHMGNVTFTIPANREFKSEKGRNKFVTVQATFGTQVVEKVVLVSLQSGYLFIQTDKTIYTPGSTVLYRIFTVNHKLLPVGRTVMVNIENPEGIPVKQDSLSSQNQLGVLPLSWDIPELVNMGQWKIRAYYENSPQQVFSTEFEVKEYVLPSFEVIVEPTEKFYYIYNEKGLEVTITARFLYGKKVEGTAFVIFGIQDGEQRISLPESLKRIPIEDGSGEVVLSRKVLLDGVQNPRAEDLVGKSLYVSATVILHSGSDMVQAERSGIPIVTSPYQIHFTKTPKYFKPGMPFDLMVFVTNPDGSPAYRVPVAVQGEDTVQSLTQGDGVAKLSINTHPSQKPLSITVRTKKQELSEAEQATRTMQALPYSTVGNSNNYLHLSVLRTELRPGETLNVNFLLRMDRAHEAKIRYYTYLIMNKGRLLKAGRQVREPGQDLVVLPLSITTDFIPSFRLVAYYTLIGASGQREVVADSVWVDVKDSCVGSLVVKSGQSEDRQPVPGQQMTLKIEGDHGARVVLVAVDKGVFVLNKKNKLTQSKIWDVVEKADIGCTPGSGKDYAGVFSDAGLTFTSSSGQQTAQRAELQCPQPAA
T1 sequence (P01024 749-1663 partner limits assumed): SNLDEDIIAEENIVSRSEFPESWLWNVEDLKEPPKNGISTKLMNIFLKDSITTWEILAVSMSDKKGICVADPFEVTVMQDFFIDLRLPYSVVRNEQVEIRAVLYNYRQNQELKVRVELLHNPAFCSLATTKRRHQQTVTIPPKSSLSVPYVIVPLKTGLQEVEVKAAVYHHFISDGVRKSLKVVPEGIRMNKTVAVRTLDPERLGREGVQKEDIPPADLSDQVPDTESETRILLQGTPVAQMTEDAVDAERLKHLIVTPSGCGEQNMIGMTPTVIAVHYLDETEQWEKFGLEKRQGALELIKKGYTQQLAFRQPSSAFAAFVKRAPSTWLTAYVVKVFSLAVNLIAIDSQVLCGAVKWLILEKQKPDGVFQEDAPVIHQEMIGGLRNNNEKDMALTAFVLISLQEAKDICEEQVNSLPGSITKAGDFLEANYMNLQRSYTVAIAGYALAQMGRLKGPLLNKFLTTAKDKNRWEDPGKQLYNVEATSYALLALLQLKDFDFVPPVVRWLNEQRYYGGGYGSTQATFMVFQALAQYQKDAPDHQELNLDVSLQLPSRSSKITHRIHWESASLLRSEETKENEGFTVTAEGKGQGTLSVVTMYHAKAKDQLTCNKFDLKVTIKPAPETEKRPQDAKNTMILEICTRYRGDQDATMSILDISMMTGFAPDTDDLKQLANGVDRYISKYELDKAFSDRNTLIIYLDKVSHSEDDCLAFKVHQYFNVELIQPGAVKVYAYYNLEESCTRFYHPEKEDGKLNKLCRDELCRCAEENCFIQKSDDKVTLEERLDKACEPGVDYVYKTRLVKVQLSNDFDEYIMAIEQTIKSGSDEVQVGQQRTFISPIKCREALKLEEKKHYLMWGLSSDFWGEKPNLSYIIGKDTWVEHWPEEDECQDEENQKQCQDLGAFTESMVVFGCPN

Structure (SMILES)	IC50 [3] [nM]	ka: association rate (C3b [4])	Kd (C3b [4]) [nM]	koff (C3b [4]) [s⁻¹]	further results
CC[C@H](C)[C@H](NC(C)=O)C(=O)N[C@H]1CSSC[C@@H](C(=O)N(C)[C@H](C(N)=O)[C@@H](C)CC)NC(=O)[C@H](CCCNC(=N)N)NC(=O)[C@H](Cc2c[nH]cn2)NC(=O)[C@H](C)NC(=O)CN(C)C(=O)[C@H](Cc2c[nH]c3ccccc23)NC(=O)[C@H](CC(=O)O)NC(=O)[C@H](CCC(N)=O)NC(=O)[C@H](Cc2cn(C)c3ccccc23)NC(=O)[C@H](C(C)C)NC1=O [Cp20, reference compound]	–	–	–	–	ka: association rate (C3b [1]): 1.9 10^6/Ms; kd: dissociation rate (C3b [1]): 4.0 10^−3/s; Kd (C3b [1]; read-out: KD: binding constant from SPR): 2.4 nM; solubility at 5 min ([2]; Dulbecco's phosphate buffered saline (DPBS)): 2700 µg/mL (≈ 1620 µM); Hydrophobicity Retention Time [2]: 5.33 min; Solubility WFI ([2]; water for injection, OD (280 nm) at saturation, acetate form): 13000 µg/mL (≈ 7790 µM)
CC[C@H](C)[C@H](NC(C)=O)C(=O)N[C@H]1CSSC[C@@H](C(=O)N[C@H](C(N)=O)[C@@H](C)O)NC(=O)[C@H](CCCNC(=N)N)NC(=O)[C@H](Cc2c[nH]cn2)NC(=O)[C@H](C)NC(=O)CNC(=O)[C@H](Cc2c[nH]c3ccccc23)NC(=O)[C@H](CC(=O)O)NC(=O)[C@H](CCC(N)=O)NC(=O)[C@H](Cc2cn(C)c3ccccc23)NC(=O)[C@H](C(C)C)NC1=O [4(1MeW), reference compound]	132 ± 7	–	–	–	solubility at 5 min [2, 5]: 3500 µg/mL (≈ 2150 µM); Hydrophobicity Retention Time [2]: 5.09 min
CC[C@H](C)[C@H](NC)C(=O)N[C@H]1CSSC[C@@H](C(=O)N(C)[C@H](C(N)=O)[C@@H](C)CC)NC(=O)[C@H](CCCNC(=N)N)NC(=O)[C@H](Cc2c[nH]cn2)NC(=O)[C@H](C)NC(=O)CN(C)C(=O)[C@H](Cc2c[nH]c3ccccc23)NC(=O)[C@H](CC(=O)O)NC(=O)[C@H](CCC(N)=O)NC(=O)[C@H](Cc2cn(C)c3ccccc23)NC(=O)[C@H](C(C)C)NC1=O [peptide 1]	180 ± 17	1.3 ± 0.3 10^6/Ms	18.6 ± 3.5	0.0248 ± 0.0073	Binding affinity by SPR, in words (C3b [4]; compared with Cp40 (peptide 14)): high binding affinity
CC[C@H](C)[C@H](NC(=O)CN)C(=O)N[C@H]1CSSC[C@@H](C(=O)N(C)[C@H](C(N)=O)[C@@H](C)CC)NC(=O)[C@H](CCCNC(=N)N)NC(=O)[C@H](Cc2c[nH]cn2)NC(=O)[C@H](C)NC(=O)CN(C)C(=O)[C@H](Cc2c[nH]c3ccccc23)NC(=O)[C@H](CC(=O)O)NC(=O)[C@H](CCC(N)=O)NC(=O)[C@H](Cc2cn(C)c3ccccc23)NC(=O)[C@H](C(C)C)NC1=O [peptide 2] (H-GICV[Trp(1-Me)]QDW[Sar]AHRC[NMeI]-NH2; disulfide 3-13)	113 ± 16	1.2 ± 0.3 10^6/Ms	2.5 ± 0.5	0.0029 ± 0.0002	–
CC[C@H](C)[C@H](NC(=O)[C@@H](N)Cc1ccc(O)cc1)C(=O)N[C@H]1CSSC[C@@H](C(=O)N(C)[C@H](C(N)=O)[C@@H](C)CC)NC(=O)[C@H](CCCNC(=N)N)NC(=O)[C@H](Cc2c[nH]cn2)NC(=O)[C@H](C)NC(=O)CN(C)C(=O)[C@H](Cc2c[nH]c3ccccc23)NC(=O)[C@H](CC(=O)O)NC(=O)[C@H](CCC(N)=O)NC(=O)[C@H](Cc2cn(C)c3ccccc23)NC(=O)[C@H](C(C)C)NC1=O [peptide 4]	72 ± 10	2.1 ± 0.3 10^6/Ms	–	–	–
CC[C@H](C)[C@@H](C(N)=O)N(C)C(=O)[C@@H]1CSSC[C@H](NC(=O)[C@H](Cc2c[nH]c3ccccc23)NC(C)=O)C(=O)N[C@@H](C(C)C)C(=O)N[C@@H](Cc2cn(C)c3ccccc23)C(=O)N[C@@H](CCC(N)=O)C(=O)N[C@@H](CC(=O)O)C(=O)N[C@@H](Cc2c[nH]c3ccccc23)C(=O)N(C)CC(=O)N[C@@H](C)C(=O)N[C@@H](Cc2c[nH]cn2)C(=O)N[C@@H](CCCNC(=N)N)C(=O)N1 [peptide 19] (Ac-WCV[Trp(1-Me)]QDW[Sar]AHRC[NMeI]-NH2; disulfide 2-12)	–	3.8 ± 0.3 10^6/Ms	0.5	0.0017 ± 0.0003	solubility at 5 min [2, 5]: < 200 µg/mL; solubility ([2]; PBS): < 100 µM
CC[C@H](C)[C@H](NC(=O)[C@@H](N)Cc1c[nH]c2ccccc12)C(=O)N[C@H]1CSSC[C@@H](C(=O)N(C)[C@H](C(N)=O)[C@@H](C)CC)NC(=O)[C@H](CCCNC(=N)N)NC(=O)[C@H](Cc2c[nH]cn2)NC(=O)[C@H](C)NC(=O)CN(C)C(=O)[C@H](Cc2c[nH]c3ccccc23)NC(=O)[C@H](CC(=O)O)NC(=O)[C@H](CCC(N)=O)NC(=O)[C@H](Cc2cn(C)c3ccccc23)NC(=O)[C@H](C(C)C)NC1=O [compound 7] (H-WICV[Trp(1-Me)]QDW[Sar]AHRC[NMeI]-NH2; disulfide 3-13)	–	1.6 ± 0.1 10^6/Ms	2.2 ± 0.2	–	–
